This note sets out measurements from patent US9108984B2, “Substituted diamino-pyrimidine and diamino-pyridine derivatives as PI3K inhibitors” (Incyte Corporation, priority 2011, dated 2015).

The subject of assay [1] is Pfeiffer cells (diffuse large B cell lymphoma). Put plainly: Pfeiffer cell proliferation assay. Format: cell-based. The settings on record: Homo sapiens, [3H]-thymidine incorporation, 3-4 days. As for the experimental part: Pfeiffer Cell Proliferation Assay
Pfeiffer cell line (diffuse large B cell lymphoma) was purchased from ATCC (Manassas, Va.) and maintained in the culture medium recommended (RPMI and 10% FBS). To measure the anti-proliferation activity of the compounds, the Pfeiffer cells were plated with the culture medium (2×10^3 cells/well/per 200 μl) into 96-well ultra-low binding plates (Corning, Corning, N.Y.), in the presence or absence of a concentration range of test compounds. After 3-4 days, [^3H]-thymidine (1 μCi/well) (PerkinElmer, Boston, Mass.) in PBS wass then added to the cell culture for an additional 12 hours before the incorporated radioactivity was separated by filtration with water through GF/B filters (Packard Bioscience, Meridenj, Conn.) and measured by liquid scintillation counting with a TopCount (Packard Bioscience).
In general terms: Dividing cells build labelled thymidine or BrdU into new DNA.

For a further assay, the target named is PI3Kδ (p110δ/p85α) (Homo sapiens (Human), UniProt O00329). The assay is described as follows: PI3Kδ scintillation proximity assay (enzyme assay). Format: biochemical. As to conditions: PI3Kδ SPA, 20 μM ATP, 20 μM PIP2, 210 min. An excerpt: PI3Kδ Scintillation Proximity Assay
[γ-^33P]ATP (10 mCi/mL) was purchased from Perkin-Elmer (Waltham, Mass.). Lipid kinase substrate, D-myo-Phosphatidylinositol 4,5-bisphosphate (PtdIns(4,5)P2)D (+)-sn-1,2-di-O-octanoylglyceryl, 3-O-phospho linked (PIP2), CAS 204858-53-7, was purchased from Echelon Biosciences (Salt Lake City, Utah). PI3Kδ (p110δ/p85α) was purchased from Millipore (Bedford, Mass.). ATP, MgCl2, DTT, EDTA, MOPS and CHAPS were purchased from Sigma-Aldrich (St. Louis, Mo.). Wheat Germ Agglutinin (WGA) YSi SPA Scintillation Beads was purchased from GE healthcare life sciences (Piscataway, N.J.).
The kinase reaction was conducted in polystyrene 384-well matrix white plate from Thermo Fisher Scientific in a final volume of 25 μL. Inhibitors were first diluted serially in DMSO and added to the plate wells before the addition of other reaction components. The final concentration of DMSO in the assay was 0.5%. The PI3K assays were carried out at room temperature in 20 mM MOPS, pH 6.7, 10 mM MgCl2, 5 mM DTT and CHAPS 0.03%. Reactions were initiated by the addition of ATP, the final reaction mixture consisted of 20 μM PIP2, 20 μM ATP, 0.2 μCi [γ-^33P] ATP, 4 nM PI3Kδ. […] After the plate sealing, plates were shaken overnight at room temperature and centrifuged at 1800 rpm for 10 minutes, the radioactivity of the product was determined by scintillation counting on Topcount (Perkin-Elmer). […]

pIC50: −log10 of the molar value.

Sequence of PI3Kδ (p110δ/p85α) (O00329 whole entry): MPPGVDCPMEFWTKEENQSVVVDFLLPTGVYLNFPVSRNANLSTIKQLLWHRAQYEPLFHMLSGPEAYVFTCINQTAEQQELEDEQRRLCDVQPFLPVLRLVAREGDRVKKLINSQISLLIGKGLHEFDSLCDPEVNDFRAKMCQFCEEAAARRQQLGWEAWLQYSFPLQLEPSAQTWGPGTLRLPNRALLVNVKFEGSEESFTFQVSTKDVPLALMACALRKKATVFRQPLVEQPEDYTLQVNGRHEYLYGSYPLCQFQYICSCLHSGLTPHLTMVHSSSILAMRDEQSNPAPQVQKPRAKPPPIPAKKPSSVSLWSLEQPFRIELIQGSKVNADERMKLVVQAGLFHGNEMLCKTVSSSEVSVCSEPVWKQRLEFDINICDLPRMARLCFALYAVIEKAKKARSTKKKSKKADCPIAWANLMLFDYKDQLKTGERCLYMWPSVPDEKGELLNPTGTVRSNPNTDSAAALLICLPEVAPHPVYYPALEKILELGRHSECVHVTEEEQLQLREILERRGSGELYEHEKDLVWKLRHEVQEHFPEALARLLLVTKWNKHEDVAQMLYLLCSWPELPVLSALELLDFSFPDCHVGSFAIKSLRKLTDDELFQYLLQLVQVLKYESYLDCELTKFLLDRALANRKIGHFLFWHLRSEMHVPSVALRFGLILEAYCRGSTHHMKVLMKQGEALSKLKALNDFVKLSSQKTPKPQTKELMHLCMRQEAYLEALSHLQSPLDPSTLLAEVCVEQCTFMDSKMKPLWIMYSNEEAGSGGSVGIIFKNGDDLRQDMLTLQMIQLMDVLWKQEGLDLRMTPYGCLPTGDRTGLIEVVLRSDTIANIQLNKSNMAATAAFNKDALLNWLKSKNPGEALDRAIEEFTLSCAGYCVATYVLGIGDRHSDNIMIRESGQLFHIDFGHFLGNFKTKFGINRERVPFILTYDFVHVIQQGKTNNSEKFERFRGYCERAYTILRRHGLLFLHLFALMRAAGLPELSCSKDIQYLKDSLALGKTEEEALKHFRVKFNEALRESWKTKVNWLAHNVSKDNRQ
Sequence of PI3Kδ (p110δ/p85α) (P27986 whole entry partner): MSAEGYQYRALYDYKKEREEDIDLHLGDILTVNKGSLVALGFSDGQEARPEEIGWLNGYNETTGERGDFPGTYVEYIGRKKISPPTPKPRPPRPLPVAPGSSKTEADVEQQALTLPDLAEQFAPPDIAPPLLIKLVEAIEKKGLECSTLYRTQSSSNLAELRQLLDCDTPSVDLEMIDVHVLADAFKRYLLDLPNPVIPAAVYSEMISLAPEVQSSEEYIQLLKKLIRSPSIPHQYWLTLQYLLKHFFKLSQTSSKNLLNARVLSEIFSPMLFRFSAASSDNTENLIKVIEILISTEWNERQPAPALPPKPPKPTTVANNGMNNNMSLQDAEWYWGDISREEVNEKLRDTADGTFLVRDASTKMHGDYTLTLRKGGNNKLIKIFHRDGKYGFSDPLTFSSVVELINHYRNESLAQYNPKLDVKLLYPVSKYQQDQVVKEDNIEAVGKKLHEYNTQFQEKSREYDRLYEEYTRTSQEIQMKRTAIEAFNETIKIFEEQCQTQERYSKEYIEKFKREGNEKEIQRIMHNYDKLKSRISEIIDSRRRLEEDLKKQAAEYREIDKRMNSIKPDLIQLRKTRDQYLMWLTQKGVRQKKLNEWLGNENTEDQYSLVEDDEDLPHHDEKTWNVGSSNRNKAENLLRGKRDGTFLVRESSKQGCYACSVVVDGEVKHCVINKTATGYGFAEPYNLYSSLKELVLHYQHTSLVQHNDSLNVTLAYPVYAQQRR

Regarding `Cc1csc2nc([C@H](C)Nc3ncnc(N)c3C#N)c(-c3cccc(F)c3)c(=O)n12` [Example 2, 4-amino-6-({(1S)-1-[6-(3-fluorophenyl)-3-methyl-5-oxo-5H-[1,3]thiazolo[3,2-a]pyrimidin-7-yl]ethyl}amino)pyrimidine-5-carbonitrile], the pIC50 (in assay [1]; against PI3Kδ (p110δ/p85α)) was more than 7.70 each time.

With `CC(Nc1ncnc(N)c1C#N)c1cc(Cl)c2ccnnc2c1-c1cccc(F)c1` (single isomer, unassigned) [Example 1, 4-Amino-6-({1-[5-chloro-8-(3-fluorophenyl)cinnolin-7-yl]ethyl}amino)-pyrimidine-5-carbonitrile], the pIC50 (in assay [1]; at PI3Kδ (p110δ/p85α)) was more than 7.70 throughout.

The pIC50 is the IC50 on a negative log10 scale, so that one unit is a factor of ten. A lower pIC50 goes with a large IC50.
